For 6 molecules, Ki results are on record in BindingDB's records for doi:10.1016/j.ejmech.2014.06.017 (University of Messina, 2014).

This experiment is described as follows: Inhibition of PGPH-like activity of 20S proteasome in human erythrocytes using Z-Leu-Leu-Glu-AMC as substrate by fluorescence assay.
As for `CC(C)C[C@H](NC(=O)CCn1ccc2ncccc2c1=O)B(O)O`, the affinity, expressed as Ki, was 690 nM.

With `CC(C)C[C@H](NC(=O)Cn1ccc2ccccc2c1=O)B(O)O`, the affinity corresponds to a Ki of 990 nM. The same measure for `CC(C)C[C@H](NC(=O)CCn1ccc2ccccc2c1=O)B(O)O`: 240 nM; for `COc1cc2ccn(CCC(=O)N[C@@H](CC(C)C)B(O)O)c(=O)c2cc1OC`: 1250 nM.

In the case of `CC(C)C[C@H](NC(=O)Cn1ccc2ccc(Br)cc2c1=O)B(O)O`, the affinity, expressed as Ki, was 310 nM.

In turn, `CC(C)C[C@H](NC(=O)CCn1ccc2ccc(Br)cc2c1=O)B(O)O` had an inhibitory constant (Ki) of 2040 nM.

The term Ki denotes the dissociation constant of the complex between target and ligand, obtained from inhibition or displacement.
